Results taken from patent US5705185A, “Transdermal delivery of estradiol and process for manufacturing said device” (priority 1996, dated 1998).

Columns and labels:
[1] = in vitro permeation through mouse skin in diffusion chamber; format: in vitro ADME, Swiss mice; settings: n = 4
Description: […]. The techniques of this permeation studies is described afterwards.
Furthermore, "in vitro" permeation experiments with abdominal mouse skin and human skin were made using the diffusion chamber that is schematically shown in longitudinal section in FIG. 1.
The diffusion chamber illustrated in FIG. 1 comprises a body having front and rear tubular sections 1 and 2 having respective annular end flanges 3 and 4 by which the sections 1 and 2 are joined together. A sample of skin 5, with attached estradiol delivery device D to be tested facing the rear tubular section 2, is clamped between the flanges 3 and 4 by means of a pinch clamp 6.
The tubular section 1 has an internal chamber 7 with an opening 8 furnished with a glass stopper 9. The tubular section 1 has also a jacket 10 through which warm water can be circulated to maintain the contents of the chamber 7 at the desired temperature. The chamber 7 contains a magnetic bar stirrer 11 which is rotatable by means of a magnetic field applied externally means (not shown) to enable the contents of the chamber 7 to be stirred.
The tubular section 2 has a chamber 12 with an opening 13 furnished with a glass stopper 14.
In the assay, the skin of Swiss mice, shaved 72 hours before the experiments, was employed. Also used was human skin obtained from human skin samples (remnants of plastic surgery) which have been eliminated the adipose tissue by scissors, and then was cut to 500 microns by a dermatome.
[…]. Each experiment was started by loading chamber 7 with 5.5 ml of a receptor solution of sodium lauryl sulfate (0.5%), starting the stirrer 11 and taking samples at pre determined periods of time and the subsequent determination of permeated estradiol (by HPLC).

[2] = saturation of estradiol in the coating layer; settings: bad appearance, diminished adhesive properties
[3] = test system: enzymatic degradation from estradiol to estrone in human skin; assay: inhibition of the estradiol metabolism in human skin; settings: for % Estradiol Metabolized (E1 *100/E1 + E2): 10% PPG; for Inhibition %: 10% PPG versus control; for Estradiol / Estrone: saturated estradiol in saline + 10% PPG, human skin without stratum corneum, n=3; for % estrone formed (percent of estradiol conversion to estrone): n = 4
[4] = test system: 17-β-hydroxysteroid dehydrogenase; assay: purified 17-β-hydroxysteroid dehydrogenase assay, absorbance at 340nm (NADH); format: biochemical; settings: propylene glycol 10% in volume
Experimental: Another experimentation in this field was carried out using purified 17-β-hydroxysteroid dehydrogenase, 17-β-estradiol as a substrate and NAD^+ as a cofactor in the control tubes, in sample tubes 10% in volume of propyleneglycol was added. The continuous monitoring of the increase in the absorbance at 340nm generated by the appearance of NADH was the method used. […] Therefore the inhibition of the conversion is no mediated by a denaturalization process of the enzyme, therefore we postulated that the process of inhibition was governed by competition for NAD^+.

Question: For `C[C@]12CC[C@@H]3c4ccc(O)cc4CC[C@H]3[C@@H]1CC[C@@H]2O` [Estradiol, estradiol], which “Flux through mouse skin at 24h” value ([1]; estradiol concentration 1 wt % in coating layer) is on record?
Answer: 1.8 ± 0.29 μg/cm^2 *h

Question: And the “Flux through mouse skin at 24h” value ([1]; estradiol concentration 1.5 wt % in coating layer)?
Answer: 2.2 ± 0.25 μg/cm^2 *h

Question: What about the “Flux through mouse skin at 24h” value ([1]; estradiol concentration 1.75 wt % in coating layer) of the same compound?
Answer: 2.8 ± 0.33 μg/cm^2 *h

Question: And the “Flux through mouse skin at 24h” value ([1]; estradiol concentration 1.8 wt % in coating layer)?
Answer: 3.28 ± 0.41 μg/cm^2 *h

Question: What about the “Flux through mouse skin at 24h” value ([1]; estradiol concentration 2 wt % in coating layer) of the same compound?
Answer: 3.31 ± 0.45 μg/cm^2 *h

Question: What about the “Flux through mouse skin at 24h” value ([1]; estradiol concentration 2.5 wt % in coating layer) of the same compound?
Answer: 3.39 ± 0.37 μg/cm^2 *h

Question: What about the “concentration above which estradiol precipitates in the polymeric matrix” value [2] of the same compound?
Answer: above 2.1 wt %

Question: And the “transformation of estradiol in contact with the enzymes of the skin” value ([3]; permeation through skin)?
Answer: enzymatically oxidazed to estrone

Question: Which results are given for `CC(O)CO` (centres unmarked) [Propylene glycol, propylene glycol]?
Answer: increase in the absorbance at 340nm (NADH) ([4]; 0 min): 0; effect on purified enzyme activity versus control ([4]; 17-β-estradiol substrate, NAD+ cofactor): No differences; increase in the absorbance at 340nm (NADH) ([4]; 1 min): 15; increase in the absorbance at 340nm (NADH) ([4]; 2 min): 30; increase in the absorbance at 340nm (NADH) ([4]; 3 min): 47; increase in the absorbance at 340nm (NADH) ([4]; 4 min): 60; increase in the absorbance at 340nm (NADH) ([4]; 5 min): 72; increase in the absorbance at 340nm (NADH) ([4]; 6 min): 95; increase in the absorbance at 340nm (NADH) ([4]; 7 min): 105; increase in the absorbance at 340nm (NADH) ([4]; 8 min): 113; increase in the absorbance at 340nm (NADH) ([4]; 9 min): 120; increase in the absorbance at 340nm (NADH) ([4]; 10 min): 125; increase in the absorbance at 340nm (NADH) ([4]; 11 min): 128; increase in the absorbance at 340nm (NADH) ([4]; 12 min): 130; % Estradiol Metabolized (E1 *100/E1 + E2) ([3]; Exp. 1): 7.4%; Inhibition % ([3]; Exp. 1): 66.0%; Estradiol ([3]; Exp. 1): 3.51 nmol/mL; Estrone ([3]; Exp. 1): 0.27 nmol/mL; % Estradiol Metabolized (E1 *100/E1 + E2) ([3]; Exp. 2): 6.55%; Inhibition % ([3]; Exp. 2): 57.2%; Estradiol ([3]; Exp. 2): 2.71 nmol/mL; Estrone ([3]; Exp. 2): 0.19 nmol/mL; propyleneglycol concentration at which enzymatic conversion of estradiol to estrone is minimized ([3]; FIG. 4C): 10 % wt; % estrone formed (percent of estradiol conversion to estrone) ([3]; PG 0.25%): 37.9%; % estrone formed (percent of estradiol conversion to estrone) ([3]; PG 0.5%): 33.6%; % estrone formed (percent of estradiol conversion to estrone) ([3]; PG 1.5%): 26.8%; % estrone formed (percent of estradiol conversion to estrone) ([3]; PG 3%): 20.6%; % estrone formed (percent of estradiol conversion to estrone) ([3]; PG 5%): 16.1%; % estrone formed (percent of estradiol conversion to estrone) ([3]; PG 10%): 9.2%; inhibition of enzymatic degradation of estradiol to estrone ([3]; tests conducted by the applicant): inhibits the enzymatic mechanism that causes degradation of estradiol to estrone
